Laboratory results from patent US10858422B2, “Methods for treating systemic lupus erythematosus with an anti-apolipoprotein B antibody” (Abcentra, LLC, priority 2016, dated 2020).
Marks after values point to notes of the source that are not given here.

Experiments:
[1] = tested on: Spleen T-cells from gld.apoE−/− mice; test: Cytokine production from spleen T-cells activated by CD3/CD28; type: in vivo, mouse; settings: Avg; for IFN-γ production / IL-6 production / IL-10 production / IL-12 (p70) production: Normal Diet; for TNFα Production from Spleen T-cells: Western Diet
Description: Lymph nodes and spleen were harvested and weighed. Splenocytes were isolated and analyzed for T-regulatory cell populations by immunofluorescence staining and flow cytometry. Splenocytes were also cultured and T-cells activated in vitro by Mouse T-Activator CD3/CD28. Production of cytokines INF-γ, IL-6, IL-10, IL-12, and […] by activated T-cells were assessed with immunoassays.
CVX-12 immunization is hypothesized to impact atherosclerosis via modulation of T-cell cytokine release. Thus cytokine release by cultured splenocytes activated by CD3 and CD28 was assessed for the cytokines IFNγ, IL-6, IL-10, IL-12 (p70), and TNFα (Tables 6-12). CVX-12 immunization increased IL-6 and IL-10 cytokine release from spleen T-cells in apoE^−/− mice. […] IL-10 release from gld.apoE^−/− splenocytes was decreased by CVX-12 immunization of gld.apoE^−/− mice on western diet.

[2] = tested on: gld.apoE−/− mice; test: Relative anti-P210 IgM/IgG antibody levels in serum (ELISA); type: in vivo, mouse; settings: normal diet (ND), ± SEM
Description: Each animal dosed with a test article received subcutaneous primary immunization in the dorsal interscapular area at Day 0 (7 weeks of age), followed by a booster on Day 21 and 35 (10 and 12 weeks of age). CVX-3-84 was used to dose ApoE^−/− (n=20), gld mice (n=20). CVX-3-123 was used to dose gld.ApoE^−/− (n=30 on high cholesterol chow; n=30 on normal chow diet).
20 gld.ApoE^−/− mice in the positive control group received an oral dose of rosiglitazone at 10 mg/kg/day in normal chow starting on Day 0 (7 weeks of age) and continuing for the duration of the study period. Mice receiving Rosiglitazone were sacrificed at Day 126 (25 weeks of age).
Serum and urine was collected at day 63 of the study (16 weeks of age). Serum collected at day 63 of the study was analyzed for anti-P210 IgM and IgG antibodies. Levels of oxidized phospholipid was also measured in gld.apoE^−/− mice maintained on normal diet.
Serum and urine was collected at euthanasia. Endpoint serum was analyzed for anti-nuclear antibody (ANA) titers, total cholesterol, triglycerides, anti-P210 IgM antibodies, and anti-P210 IgG antibodies. Endpoint serum from gld.ApoE^−/− animals maintained on normal diet was also analyzed for anti-cardiolipin antibodies. Anti-nuclear antibody titers were tested using the NOVA-lite Hep2 ANA assay, and serum dilutions of 1:100, 1:1000, 1:10000, 1:30000, and 1:90000 were tested for nuclear-localized antibody reactivity to human epithelial cells. Reactivity was detected using FITC-conjugated goat anti-mouse IgG antibody. ANAs were scored based on the presence or absence of antibody signal at each titer. Total cholesterol was assessed using Cholesterol E reagent according to the manufacturer's protocol. Triglyceride levels were assessed with Triglyceride Reagent and with a glycerol standard. Anti-P210 antibodies were detected by ELISA using reconstituted P210 peptide.

[3] = tested on: MRL/lpr ApoE−/− mice; test: Flow cytometry of blood, spleen and lymph node cells after oral immunization; type: in vivo, mouse; settings: 30 μg/ml
[4] = tested on: human PBMC; test: Death receptor activation of human PBMC: release of soluble death receptors, apoptosis; type: cell-based; settings: for release of Fas into culture medium / release of TNF-R1: healthy donor PBMC, Fas ligand 0.5 μg/ml, IL-1β 10 ng/ml, TNF 10 ng/ml, LPS 10 μg/ml
Source text: PBMCs from SLE patients (n=6, x female and x male, age x+/−x years) and matched healthy controls (n=6, x female and x male, age x+/−x years) as well as from a healthy donor were isolated using FicollPaque Plus (GE healthcare, Waukesha, Wis., USA) density gradient centrifugation according to manufacturer's instructions. The cells from SLE patients and controls were resuspended in 40% autologous serum, 40% RPMI 1640 medium (Thermo Fisher Scientific, Waltham, Mass., USA) and 20% dimethyl sulfoxide (Sigma Aldrich, St. Louis, […]., USA) and frozen in liquid nitrogen.
(§1) Cells from healthy donors were seeded freshly at a density of 0.5×10^6 cells per well in complete RPMI (10 U/ml Penicillin/streptomycin, 1% L-glutamine, 1% sodium pyruvate, 1% Hepes and 0.1% mercaptoethanol) with 2% FBS (HyClone South Logan, Utah, USA). For death receptor activation, IL-1β, soluble Fas ligand, TNF (Peprotech, Rocky Hill, N.J., USA) and LPS (Sigma Aldrich) were used at a concentration of 10 ng/ml, 0.5 μg/ml, 10 ng/ml and 10 μg/ml respectively.
as §1, with “from a” for “from”, “donor” for “donors”, “TNFα” for “TNF”
Cell supernatants from death receptor activated PBMCs from a healthy donor and SLE patients/controls were used for measurement of soluble Fas, TNF-R1 and TRAIL-R2 with a magnetic bead system multiplex assay (R&D Systems, Minneapolis, Minn., USA) obtained by Luminex machine (Bio-Rad). For SLE patients and controls, TNF-R1 concentration was measured with ELISA (Abcam) according to manufacturer's recommendations.

CN(CCOc1ccc(CC2SC(=O)NC2=O)cc1)c1ccccn1 (stereo not shown) [Rosiglitazone]
IFN-γ production ([1]; Stimulated): 11419.9 pg/mL | IL-6 production ([1]; Stimulated): 385.0* pg/mL | IL-10 production ([1]; Stimulated): 1528.3 pg/mL | IL-12 (p70) production ([1]; Stimulated): 44.7 pg/mL | IFN-γ production ([1]; Unstimulated): 24.2* pg/mL | IL-6 production ([1]; Unstimulated): 255.9* pg/mL | IL-10 production ([1]; Unstimulated): 196.0 pg/mL | IL-12 (p70) production ([1]; Unstimulated): 89.2 pg/mL | TNFα Production from Spleen T-cells ([1]; Stimulated (CD3/CD28)): 39.5 pg/mL | TNFα Production from Spleen T-cells ([1]; Unstimulated): 8.9 pg/mL | anti-P210 IgG ([2]; Endpoint): 0.68 ± 0.07 OD at 405 nm | anti-P210 IgM ([2]; Endpoint): 0.42 ± 0.06 ^a, c OD at 405 nm | anti-P210 IgG ([2]; Midpoint): 0.68 ± 0.07 OD at 405 nm | anti-P210 IgM ([2]; Midpoint): 0.64 ± 0.03 OD at 405 nm

CTB
central memory T cells in lymph node [3]: 34.5±10.6% | central memory helper T cells (CD3+CD4+CD62L+CD44int-hi) in spleen [3]: 19.4±5.2% | cytolytic T cell populations (CD3+CD8+CD62L+CD44int-hi) in spleen [3]: 18.2±3.7%

IL-1β: cytokine stimulus, 10 ng/ml [reference compound]
release of Fas into culture medium [4]: no effect | release of TNF-R1 [4]: stimulated

TNF-α [reference compound]
release of Fas into culture medium [4]: no effect | release of TNF-R1 [4]: no effect

B1: Fas ligand: soluble Fas ligand used for death receptor activation of PBMC (protein)
chain: PSPPPEKKELRKVAHLTGKSNSRSMPLEWEDTYGIVLLSGVKYKKGGLVINETGLYFVYSKVYFRGQSCNNLPLSHKVYMRNSKYPQDLVMMEGKMMSYCTTGQMWARSSYLGAVFNLTSADHLYVNVSELSLVNFEESQTFFGLYKL
increase in the release of FAS ([4]; PBMCs from SLE patients): 73% | frequency of apoptotic lymphocytes ([4]; PBMCs from healthy controls (not in PBMCs from SLE patients)): increased | release of Fas into culture medium [4]: stimulated | release of TNF-R1 [4]: stimulated
